{
  "source": "paper PMC5507552",
  "about": "(Bioconjugate chemistry, 2017)",
  "test_system": "human HEp2 cells",
  "details": "read-out: Dark toxicity (IC50), overnight incubation, Cell Titer Blue, from dose-response curves",
  "data": [
    {"smiles": "COc1ccc(C2=C3C=C(Cl)C(c4ccc(OC)cc4)=[N+]3[B-](F)(F)n3c2cc(Cl)c3-c2ccc(NC(=S)NCCOCCOCCOCCC(=O)N[C@@H](CC(C)C)C(=O)N[C@@H](C)C(=O)N[C@@H](CCCNC(=N)N)C(=O)N[C@@H](CC(C)C)C(=O)N[C@@H](CC(C)C)C(=O)N[C@H](C(N)=O)[C@@H](C)O)cc2)cc1", "note": "[Conjugate 8, BODIPY-3PEG-LARLLT-NH2]", "values": [
      {"measurement": "IC50", "value": 98, "unit": "µM"}
    ]}
  ]
}
